In data set [1] the test system is Müller glia. Put plainly: Electron microscopy count of Müller cell nuclei in retinal sections. In kind it is in vivo, mouse. To be noted: 3 days after subretinal injection 1 μg/μl, vs saline-injected group. The method, then: (§1) Mice were sacrificed 3 days after receiving the injection of α-AA (1 μg/μl) or saline as controls by injection of overdose of ketamine/xylazine followed by cervical dislocation, and the eyeballs were dissected, fixed with Karnovsky's fixative (pH 7.4) for 24 h. The quadrants of the eyes that received subretinal injection were dissected and embedded in Epon-Araldite. Semi-thin sections (1-2 μm) were stained with phenylenediamine phase staining. The sections were examined and photographed with a transmission electron microscope (EM410; Philips; Eindhoven, The Netherlands). Ten randomly selected retinal sections of each eye were photographed at 1900× magnification, and all Müller glial nuclei in the photomicrograph were counted.
Retinal sections were examined under electron microscopy, in which Müller glia were identified by their characteristic angular nuclei, dense chromatin and dark perinuclear cytoplasm (FIG. 1e-h). […] This was also confirmed by immunolabeling for specific markers of retinal neurons, including photoreceptors (recoverin) and amacrine cells (syntaxin) (FIG. 2).

Data set [2] relates to retinal neurons. Put plainly: Retinal neuron morphology and lamina structure after injection (electron microscopy, Nissl, recoverin, syntaxin). In kind it is in vivo, mouse. The method, then:
Mice were anesthetized by intraperitoneal injection of ketamine (62.5 mg/kg) and xylazine (12.5 mg/kg) and transcardially perfused with phosphate buffered saline (PBS) followed by 4% paraformaldehyde in PBS. Retinal flat-mounts or transverse retinal sections (14 μm) were preblocked with PBS containing 3% bovine serum albumin (Sigma-Aldrich, St. Louis, Mo.) and 0.3% Triton X (Sigma-Aldrich) and incubated, first, with primary antibody overnight, and then with secondary antibody for 1 hour at room temperature. The following antibodies were used: Cy3-conjugated monoclonal antibody against GFAP (1:1000; Sigma), Brn-3b (1:200; Santa Cruz Biotechnology; Santa Cruz, Calif.), mouse anti-rhodopsin (1:4000; Rho1D4), chick anti-cone-opsin (1:300), and Cy-2, Cy-3 or Cy-5-conjugated secondary antibody (Jackson ImmunoResearch; West Grove, Pa.). Assessment of morphological integration were quantified by counting EGFP+ cells located outside of transplanted cell clusters in retinal whole-mounts. Statistical significance was determined by either the two tailed student t test or ANOVA.
as §1
Retinal sections were examined under electron microscopy, in which Müller glia were identified by their characteristic angular nuclei, dense chromatin and dark perinuclear cytoplasm (FIG. 1e-h). […]

Data set [3] has as its system cone photoreceptor function. Put plainly: Flicker ERG under cone-isolation conditions in Rho-/- mice. In kind it is in vivo, mouse. Particulars: Rho-/- mice injected subretinally at 6 weeks old, 4 weeks later, vs saline contralateral eye. Here is the method:
Mice carrying rhodopsin deficiency (Rho^−/−) were used to determine if injection of alpha-aminoadipate (αAA) is sufficient to induce neuroregeneration from endogenous retinal progenitors, e.g., Muller cells, leading to preservation and restoration of photoreceptor cell function. Light-evoked photoreceptor responses and retinal functions in Rho^−/− mice that received αAA or saline injection were assessed using ERGS and whole cell-attached patch clamp.
To determine if αAA induces functional neuroregeneration in Rho^−/− mice, αAA was injected subretinally into the left eyes of 6 week-old Rho^−/− mice, while their contralateral eyes were injected with saline and served as controls. After a 4 week survival period to allow regeneration of new photoreceptors, mouse ERG was measured in both eyes and then performed immunohistochemistry to identify photoreceptor cells. Rho^−/− mice lack the rod photoreceptor cell component or ERG a-wave. As cones consist of ˜3% of photoreceptors in mice, it is difficult to assess cone action a-wave; therefore, flicker ERG photometry under cone-isolation conditions was used to measure cone functions. […]

Data set [4] has as its system cone photoreceptor cells. Kind of data set: Cone opsin immunohistochemistry of retinal sections of Rho-/- mice. In kind it is in vivo, mouse. The method, then:
To determine if αAA induces functional neuroregeneration in Rho^−/− mice, αAA was injected subretinally into the left eyes of 6 week-old Rho^−/− mice, while their contralateral eyes were injected with saline and served as controls. After a 4 week survival period to allow regeneration of new photoreceptors, mouse ERG was measured in both eyes and then performed immunohistochemistry to identify photoreceptor cells. Rho^−/− mice lack the rod photoreceptor cell component or ERG a-wave. As cones consist of ˜3% of photoreceptors in mice, it is difficult to assess cone action a-wave; therefore, flicker ERG photometry under cone-isolation conditions was used to measure cone functions. […] The ERG b-wave arises from neural activity downstream of photoreceptors, its presence in the αAA treated eye has a very important implication: not only is the treatment creating new or preserving existing photoreceptors, such photoreceptors are integrating into the existing retinal circuitry in such a way as to elicit activity in downstream neurons (most likely bipolar cells). […] Consistent with the presence of ERG b-waves in αAA-treated eye, light-elicited spiking responses in some of the ganglion cells were observed (n=4/9) (FIG. 15 A, B). […] In contrast, no light-elicited responses in ganglion cells were recorded from the saline-injected eyes (n=4/4, FIG. 14C). […]

In data set [5] the test system is Muller cells. Kind of data set: Müller cell proliferation and trans-differentiation in diseased eyes of Rho-/- mice. Particulars: administered directly to the diseased eyes of Rho-/- mice. In kind it is in vivo, mouse. The text has this: Photoreceptor cell death can be measured or assessed by electroretinography, and a reduction or absence of a-wave and/or b-waves. […] Furthermore, proliferating Muller cells were also shown to be capable of trans-differentiating into retinal progenitor cells (expressing retinal progenitor markers).

For data set [6], the system named is Muller cells. Particulars: wild-type mice with normal retinas, Takeda et al. 2009; cited from earlier work.

Entries after “also recorded” stand apart in the source; their conditions may differ.

Take `NC(CCCC(=O)O)C(=O)O` (stereo not drawn) [α-AA, alpha-aminoadipate]: the “reduction in counts of Müller cell nuclei” value in data set [1] is on record as 30%. For the same compound, the “retinal neuron morphology (electron microscopy)” value in data set [2] (3 days after subretinal injection) was “No abnormality in retinal neuron morphology”. In data set [2] (day 3 after injection, vs saline-injected controls), the “morphology and lamina structure (recoverin, syntaxin immunolabeling)” value was “No apparent changes; also recorded: No significant difference”. The neuronal toxicity result in data set [2] (mouse, in vivo) is “No neuronal toxicity”. Moreover, in data set [3], the “ERG b-wave (flicker ERG)” value is on record as “sizable b-wave”. Also, the retinal neuron damage result in data set [4] (single intraocular injection) was “does not cause apparent retinal neuron damage”. In addition, in data set [4] (single subretinal injection at 6 weeks old, vs saline-treated control), the “number of cone photoreceptor cells” value was “increased number of cone photoreceptor cells”. Moreover, the “proliferation of Muller cells” value in data set [5] was “resulted in proliferation of Muller cells”. The “Muller cell proliferation in the retina” value in data set [6] was “can stimulate Muller cell proliferation”.

Values taken from patent US11622951B2, “Alpha-aminoadipate for treatment of vision loss and restoring sight” (The Schepens Eye Research Institute, Inc., priority 2013, dated 2023).
